Experiment: Plasma pharmacokinetics of ARRY-520
Format: in vivo, human
Conditions: human, plasma, intravenous

SMILES: CON(C)C(=O)N1N=C(c2cc(F)ccc2F)S[C@@]1(CCCN)c1ccccc1 [ARRY-520]
- AUC(0-inf) (2.5 mg/m^2): 1650 ng·h/mL
- clearance (2.5 mg/m^2, CL, Schedule 1, Cycle 1 Day 1, 2.5 mg/m^2 (N=3), geometric mean (geometric %CV)): 44.8 mL/min
- Cmax (2.5 mg/m^2, Cmax, Schedule 1, Cycle 1 Day 1, 2.5 mg/m^2 (N=3), geometric mean (geometric %CV)): 132 ng/mL
- MRT (2.5 mg/m^2, MRT, Schedule 1, Cycle 1 Day 1, 2.5 mg/m^2 (N=3), median (min-max)): 92.7 h
- Tmax (2.5 mg/m^2, Tmax, Schedule 1, Cycle 1 Day 1, 2.5 mg/m^2 (N=3), median (min-max)): 2 h
- Vd (2.5 mg/m^2, Vss, Schedule 1, Cycle 1 Day 1, 2.5 mg/m^2 (N=3), mean (%CV)): 405 L
- half-life (2.5 mg/m^2, t1/2, Schedule 1, Cycle 1 Day 1, 2.5 mg/m^2 (N=3), median (min-max)): 97.2 h
- AUC(0-t) (3.6 mg/m^2, AUC0–24, Schedule 2, Cycle 1 Day 1, 3.6 mg/m^2 (N=1), geometric mean): 345 ng·h/mL
- AUC(0-t) (3.6 mg/m^2, AUC0–24, Schedule 2, Cycle 1 Day 5, 3.6 mg/m^2 (N=1), geometric mean): 733 ng·h/mL
- clearance (3.6 mg/m^2, CL, Schedule 2, Cycle 1 Day 1, 3.6 mg/m^2 (N=1), geometric mean): 187 mL/min
- clearance (3.6 mg/m^2, CL, Schedule 2, Cycle 1 Day 5, 3.6 mg/m^2 (N=1), geometric mean): 22.2 mL/min
- Cmax (3.6 mg/m^2, Cmax, Schedule 2, Cycle 1 Day 1, 3.6 mg/m^2 (N=1), geometric mean): 73.9 ng/mL
- Cmax (3.6 mg/m^2, Cmax, Schedule 2, Cycle 1 Day 5, 3.6 mg/m^2 (N=1), geometric mean): 199 ng/mL
- MRT (3.6 mg/m^2, MRT, Schedule 2, Cycle 1 Day 5, 3.6 mg/m^2 (N=1), median (min-max)): 152 h
- Tmax (3.6 mg/m^2, Tmax, Schedule 2, Cycle 1 Day 1, 3.6 mg/m^2 (N=1), median (min-max)): 1 h
- Tmax (3.6 mg/m^2, Tmax, Schedule 2, Cycle 1 Day 5, 3.6 mg/m^2 (N=1), median (min-max)): 1.08 h
- Vd (3.6 mg/m^2, Vss, Schedule 2, Cycle 1 Day 1, 3.6 mg/m^2 (N=1), mean): 278 L
- Vd (3.6 mg/m^2, Vss, Schedule 2, Cycle 1 Day 5, 3.6 mg/m^2 (N=1), mean): 202 L
- half-life (3.6 mg/m^2, t1/2, Schedule 2, Cycle 1 Day 1, 3.6 mg/m^2 (N=1), median (min-max)): 18.7 h
- half-life (3.6 mg/m^2, t1/2, Schedule 2, Cycle 1 Day 5, 3.6 mg/m^2 (N=1), median (min-max)): 108 h
- AUC(0-inf) (3.75 mg/m^2): 1480 ng·h/mL
- clearance (3.75 mg/m^2, CL, Schedule 1, Cycle 1 Day 1, 3.75 mg/m^2 (N=1), geometric mean): 113 mL/min
- Cmax (3.75 mg/m^2, Cmax, Schedule 1, Cycle 1 Day 1, 3.75 mg/m^2 (N=1), geometric mean): 31.1 ng/mL
- MRT (3.75 mg/m^2, MRT, Schedule 1, Cycle 1 Day 1, 3.75 mg/m^2 (N=1), median (min-max)): 127 h
- Tmax (3.75 mg/m^2, Tmax, Schedule 1, Cycle 1 Day 1, 3.75 mg/m^2 (N=1), median (min-max)): 1 h
- Vd (3.75 mg/m^2, Vss, Schedule 1, Cycle 1 Day 1, 3.75 mg/m^2 (N=1), mean): 857 L
- half-life (3.75 mg/m^2, t1/2, Schedule 1, Cycle 1 Day 1, 3.75 mg/m^2 (N=1), median (min-max)): 100 h
- AUC(0-inf) (4.5 mg/m^2): 3000 ng·h/mL
- clearance (4.5 mg/m^2, CL, Schedule 1, Cycle 1 Day 1, 4.5 mg/m^2 (N=4), geometric mean (geometric %CV)): 49.2 mL/min
- Cmax (4.5 mg/m^2, Cmax, Schedule 1, Cycle 1 Day 1, 4.5 mg/m^2 (N=4), geometric mean (geometric %CV)): 53.4 ng/mL
- MRT (4.5 mg/m^2, MRT, Schedule 1, Cycle 1 Day 1, 4.5 mg/m^2 (N=4), median (min-max)): 142 h
- Tmax (4.5 mg/m^2, Tmax, Schedule 1, Cycle 1 Day 1, 4.5 mg/m^2 (N=4), median (min-max)): 1.01 h
- Vd (4.5 mg/m^2, Vss, Schedule 1, Cycle 1 Day 1, 4.5 mg/m^2 (N=4), mean (%CV)): 340 L
- half-life (4.5 mg/m^2, t1/2, Schedule 1, Cycle 1 Day 1, 4.5 mg/m^2 (N=4), median (min-max)): 100 h
- AUC(0-inf) (5.6 mg/m^2): 2520 ng·h/mL
- clearance (5.6 mg/m^2, CL, Schedule 1, Cycle 1 Day 1, 5.6 mg/m^2 (N=2), geometric mean): 71.7 mL/min
- Cmax (5.6 mg/m^2, Cmax, Schedule 1, Cycle 1 Day 1, 5.6 mg/m^2 (N=2), geometric mean): 49.6 ng/mL
- MRT (5.6 mg/m^2, MRT, Schedule 1, Cycle 1 Day 1, 5.6 mg/m^2 (N=2), median (min-max)): 131 h
- Tmax (5.6 mg/m^2, Tmax, Schedule 1, Cycle 1 Day 1, 5.6 mg/m^2 (N=2), median (min-max)): 0.959 h
- Vd (5.6 mg/m^2, Vss, Schedule 1, Cycle 1 Day 1, 5.6 mg/m^2 (N=2), mean): 515 L
- half-life (5.6 mg/m^2, t1/2, Schedule 1, Cycle 1 Day 1, 5.6 mg/m^2 (N=2), median (min-max)): 92.5 h
- clearance (CL, Schedule 1, Cycle 1 Day 1, Schedule Total (N=10), geometric mean (geometric %CV)): 56 mL/min
- clearance (CL, Schedule 2, Cycle 1 Day 1, Schedule Total (N=18), geometric mean (geometric %CV)): 119 mL/min
- clearance (CL, Schedule 2, Cycle 1 Day 5, Schedule Total (N=18), geometric mean (geometric %CV)): 19.8 mL/min
- clearance (CL, range across cohorts, Schedule 1, Cycle 1): 44.8 to 113 mL/min
- MRT (MRT, Schedule 1, Cycle 1 Day 1, Schedule Total (N=10), median (min-max)): 127 h
- Tmax (Tmax, Schedule 1, Cycle 1 Day 1, Schedule Total (N=10), median (min-max)): 1 h
- Tmax (Tmax, Schedule 2, Cycle 1 Day 1, Schedule Total (N=18), median (min-max)): 1 h
- Tmax (Tmax, Schedule 2, Cycle 1 Day 5, Schedule Total (N=18), median (min-max)): 1 h
- Vd (Vss, Schedule 1, Cycle 1 Day 1, Schedule Total (N=10), mean (%CV)): 446 L
- Vd (Vss, Schedule 2, Cycle 1 Day 1, Schedule Total (N=18), mean (%CV)): 306 L
- Vd (Vss, Schedule 2, Cycle 1 Day 5, Schedule Total (N=18), mean (%CV)): 191 L
- clearance (clearance, plasma PK, abstract summary): ~50 mL/min
- clearance (geometric mean CL, Schedule 1, Cycle 2, all patients, N=4): 50.3 mL/min
- MRT (median MRT, Schedule 1): 127 h
- half-life (median terminal t1/2, plasma PK, summary): > 90 h
- half-life (t1/2, Schedule 1, Cycle 1 Day 1, Schedule Total (N=10), median (min-max)): 98.6 h
- half-life (t1/2, Schedule 2, Cycle 1 Day 1, Schedule Total (N=18), median (min-max)): 26.1 h

— article PMC4984525 (Cancer, 2011)
